Experimental data as given in ChEMBL document CHEMBL1201862, “PubChem BioAssay data set” (2004).
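96-well plates; 48 h exposure; 5 concentrations. Endpoints by linear interpolation between flanking doses. Not reached: highest tested concentration assigned. Here, GI50 denotes the concentration required for 50% inhibition of growth.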 The source made the active and inactive calls. Rule as the data show it: active = GI50 up to about 1.1 µM and inactive = higher.

Assays:
Experiment in all cases: DTP human tumour cell line panel, 48 h
786-0 = test system: 786-0
A498 = test system: A498
A549 = test system: A549
ACHN = test system: ACHN
BT-549 = test system: BT-549
CAKI-1 = test system: CAKI-1
CCRF-CEM = test system: CCRF-CEM
COLO 205 = test system: COLO 205
DU-145 = test system: DU-145
EKVX = test system: EKVX
HCC 2998 = test system: HCC 2998
HCT-116 = test system: HCT-116
HCT-15 = test system: HCT-15
HL-60 = test system: HL-60
HOP-62 = test system: HOP-62
HOP-92 = test system: HOP-92
HT-29 = test system: HT-29
Hs-578T = test system: Hs-578T
IGROV-1 = test system: IGROV-1
K562 = test system: K562
KM12 = test system: KM12
LOX IMVI = test system: LOX IMVI
M14 = test system: M14
MCF7 = test system: MCF7
MDA-MB-231 = test system: MDA-MB-231
MDA-MB-435 = test system: MDA-MB-435
MDA-N = test system: MDA-N
MOLT-4 = test system: MOLT-4
Malme-3M = test system: Malme-3M
NCI-H226 = test system: NCI-H226
NCI-H23 = test system: NCI-H23
NCI-H460 = test system: NCI-H460
NCI-H522 = test system: NCI-H522
NCI/ADR-RES = test system: NCI/ADR-RES
OVCAR-3 = test system: OVCAR-3
OVCAR-4 = test system: OVCAR-4
OVCAR-5 = test system: OVCAR-5
OVCAR-8 = test system: OVCAR-8
PC-3 = test system: PC-3
RPMI-8226 = test system: RPMI-8226
RXF 393 = test system: RXF 393
SF-268 = test system: SF-268
SF-295 = test system: SF-295
SF-539 = test system: SF-539
SK-MEL-28 = test system: SK-MEL-28
SK-MEL-2 = test system: SK-MEL-2
SK-MEL-5 = test system: SK-MEL-5
SK-OV-3 = test system: SK-OV-3
SN12C = test system: SN12C
SNB-19 = test system: SNB-19
SNB-75 = test system: SNB-75
SR = test system: SR
SW-620 = test system: SW-620
T47D = test system: T47D
TK-10 = test system: TK-10
U-251 = test system: U-251
UACC-257 = test system: UACC-257
UACC-62 = test system: UACC-62
UO-31 = test system: UO-31
DMS-114 = test system: DMS-114
KM-20L2 = test system: KM-20L2
LXFL 529 = test system: LXFL 529
M19-MEL = test system: M19-MEL
SNB-78 = test system: SNB-78

In the case of `Cn1cc(-c2cnc(-c3cn(C)c4ccccc34)cn2)c2ccccc21`, the GI50 (786-0) is reported as 4.6 µM (inactive), the GI50 (A498) is reported as 4.69 µM (inactive) and the GI50 (A549) is reported as 6.21 µM (inactive). For the same compound, the GI50 (ACHN) was 5.83 µM (inactive), the GI50 (BT-549) was 14.1 µM (inactive) and the GI50 (CAKI-1) was 6.67 µM (inactive). The GI50 (CCRF-CEM) was 0.448 µM (active), the GI50 (COLO 205) was 3.26 µM (inactive) and the GI50 (DU-145) was 5.27 µM (inactive). The GI50 (EKVX) was 10.1 µM (inactive), the GI50 (HCC 2998) was 5.61 µM (inactive) and the GI50 (HCT-116) was 3.4 µM (inactive). The GI50 (HCT-15) was 0.187 µM, the GI50 (HL-60) was 2.72 µM (inactive) and the GI50 (HOP-62) was 6.59 µM (inactive). The GI50 (HOP-92) was 12.9 µM (inactive), the GI50 (HT-29) was 4.78 µM (inactive) and the GI50 (Hs-578T) was 2.57 µM (inactive). The GI50 (IGROV-1) was 3.8 µM (inactive), the GI50 (K562) was 3.8 µM (inactive) and the GI50 (KM12) was 0.0471 µM (active). For the same compound, the GI50 (LOX IMVI) was 5.2 µM (inactive), the GI50 (M14) was 3.47 µM (inactive) and the GI50 (MCF7) was 0.194 µM (active). The GI50 (MDA-MB-231) was 15 µM (inactive), the GI50 (MDA-MB-435) was 0.811 µM (active) and the GI50 (MDA-N) was 0.767 µM (active). For the same compound, the GI50 (MOLT-4) was 5.66 µM (inactive), the GI50 (Malme-3M) was 5.11 µM (inactive) and the GI50 (NCI-H226) was 6.31 µM (inactive). The GI50 (NCI-H23) was 4.25 µM (inactive), the GI50 (NCI-H460) was 4.51 µM (inactive) and the GI50 (NCI-H522) was 1.51 µM (inactive). The GI50 (NCI/ADR-RES) was 2.96 µM (inactive), the GI50 (OVCAR-3) was 3.04 µM (inactive) and the GI50 (OVCAR-4) was 11.6 µM (inactive). For the same compound, the GI50 (OVCAR-5) was 14 µM (inactive), the GI50 (OVCAR-8) was 4.89 µM (inactive) and the GI50 (PC-3) was 3.73 µM (inactive). The GI50 (RPMI-8226) was 4.98 µM (inactive), the GI50 (RXF 393) was 3.25 µM (inactive) and the GI50 (SF-268) was 5.48 µM (inactive). For the same compound, the GI50 (SF-295) was 2.44 µM (inactive), the GI50 (SF-539) was 3.37 µM (inactive) and the GI50 (SK-MEL-28) was 6.37 µM (inactive). For the same compound, the GI50 (SK-MEL-2) was 5.87 µM (inactive), the GI50 (SK-MEL-5) was 0.288 µM (active) and the GI50 (SK-OV-3) was 14.6 µM (inactive). For the same compound, the GI50 (SN12C) was 8.85 µM (inactive), the GI50 (SNB-19) was 4.71 µM (inactive) and the GI50 (SNB-75) was 2.77 µM (inactive). The GI50 (SR) was 3.09 µM (inactive), the GI50 (SW-620) was 3.19 µM (inactive) and the GI50 (T47D) was 44.8 µM (inactive). For the same compound, the GI50 (TK-10) was 18.6 µM (inactive), the GI50 (U-251) was 4.06 µM (inactive) and the GI50 (UACC-257) was 16 µM (inactive). For the same compound, the GI50 (UACC-62) was 2.86 µM (inactive) and the GI50 (UO-31) was 4.79 µM (inactive).
`Cc1sc2ncnc(NCCc3ccccc3)c2c1C` was tested, and the GI50 (786-0) was 16 µM (inactive), the GI50 (A498) was 11.1 µM (inactive) and the GI50 (A549) was 14.7 µM (inactive). The GI50 (ACHN) was 12.4 µM (inactive), the GI50 (BT-549) was 15.2 µM (inactive) and the GI50 (CAKI-1) was 7.53 µM (inactive). The GI50 (CCRF-CEM) was 13 µM (inactive), the GI50 (COLO 205) was 11 µM (inactive) and the GI50 (DU-145) was 18.8 µM (inactive). For the same compound, the GI50 (EKVX) was 1.68 µM (inactive), the GI50 (HCC 2998) was 15.1 µM (inactive) and the GI50 (HCT-116) was 6.04 µM (inactive). The GI50 (HCT-15) was 21.5 µM, the GI50 (HL-60) was 9.02 µM (inactive) and the GI50 (HOP-62) was 12.8 µM (inactive). For the same compound, the GI50 (HOP-92) was 0.94 µM (active), the GI50 (HT-29) was 14.6 µM (inactive) and the GI50 (Hs-578T) was 20.7 µM (inactive). The GI50 (IGROV-1) was 12.7 µM (inactive), the GI50 (K562) was 2 µM (inactive) and the GI50 (KM12) was 13.4 µM (inactive). For the same compound, the GI50 (LOX IMVI) was 4.82 µM (inactive), the GI50 (M14) was 18.1 µM (inactive) and the GI50 (MCF7) was 12.5 µM (inactive). For the same compound, the GI50 (MDA-MB-231) was 14.6 µM (inactive), the GI50 (MDA-MB-435) was 13.7 µM (inactive) and the GI50 (MDA-N) was 10.1 µM (inactive). For the same compound, the GI50 (MOLT-4) was 14.9 µM (inactive), the GI50 (Malme-3M) was 17.5 µM (inactive) and the GI50 (NCI-H226) was 11.6 µM (inactive). For the same compound, the GI50 (NCI-H23) was 10.9 µM (inactive), the GI50 (NCI-H460) was 8.99 µM (inactive) and the GI50 (NCI-H522) was 8.59 µM (inactive). For the same compound, the GI50 (NCI/ADR-RES) was 6.22 µM (inactive), the GI50 (OVCAR-3) was 14.2 µM (inactive) and the GI50 (OVCAR-4) was 13.6 µM (inactive). For the same compound, the GI50 (OVCAR-5) was 15.4 µM (inactive), the GI50 (OVCAR-8) was 11.8 µM (inactive) and the GI50 (PC-3) was 17.3 µM (inactive). The GI50 (RPMI-8226) was 10.2 µM (inactive), the GI50 (RXF 393) was 12.3 µM (inactive) and the GI50 (SF-268) was 21.8 µM (inactive). For the same compound, the GI50 (SF-295) was 4.78 µM (inactive), the GI50 (SF-539) was 15 µM (inactive) and the GI50 (SK-MEL-28) was 17.8 µM (inactive). The GI50 (SK-MEL-2) was 14.8 µM (inactive), the GI50 (SK-MEL-5) was 1.33 µM (inactive) and the GI50 (SK-OV-3) was 22.6 µM (inactive). For the same compound, the GI50 (SN12C) was 10.6 µM (inactive), the GI50 (SNB-19) was 23.7 µM (inactive) and the GI50 (SNB-75) was 16.4 µM (inactive). For the same compound, the GI50 (SR) was 0.579 µM (active), the GI50 (SW-620) was 25.5 µM (inactive) and the GI50 (T47D) was 2.29 µM (inactive). For the same compound, the GI50 (TK-10) was 11.4 µM (inactive), the GI50 (U-251) was 11.6 µM (inactive) and the GI50 (UACC-257) was 1.04 µM (active). The GI50 (UACC-62) was 11.9 µM (inactive) and the GI50 (UO-31) was 15.6 µM (inactive).
For `COc1ccc2c(c1)CC[C@@H]1C2CC[C@]2(C)C(=O)N(CCN3CCCC3)C(=O)CC12` (some centres not stated), the GI50 (786-0) was 18.3 µM (inactive), the GI50 (A498) was 27.9 µM (inactive) and the GI50 (ACHN) was 59.3 µM (inactive). The GI50 (COLO 205) was 17.7 µM (inactive), the GI50 (DMS-114) was 26.5 µM (inactive) and the GI50 (HL-60) was 18.7 µM (inactive). The GI50 (HOP-62) was 28.3 µM (inactive), the GI50 (HOP-92) was 17.8 µM (inactive) and the GI50 (HT-29) was 17.4 µM (inactive). The GI50 (IGROV-1) was 44.7 µM (inactive), the GI50 (K562) was 20.4 µM (inactive) and the GI50 (KM-20L2) was 21.4 µM (inactive). The GI50 (KM12) was 29.4 µM (inactive), the GI50 (LXFL 529) was 26.4 µM (inactive) and the GI50 (M14) was 15.8 µM (inactive). For the same compound, the GI50 (M19-MEL) was 18.2 µM (inactive), the GI50 (MOLT-4) was 17.3 µM (inactive) and the GI50 (Malme-3M) was 17 µM (inactive). The GI50 (NCI-H23) was 49.7 µM (inactive), the GI50 (NCI-H460) was 36.6 µM (inactive) and the GI50 (NCI-H522) was 23.1 µM (inactive). For the same compound, the GI50 (OVCAR-3) was 27.5 µM (inactive), the GI50 (OVCAR-4) was 84.3 µM (inactive) and the GI50 (OVCAR-5) was 26.1 µM (inactive). The GI50 (RPMI-8226) was 15.3 µM (inactive), the GI50 (RXF 393) was 34 µM (inactive) and the GI50 (SF-268) was 35.1 µM (inactive). The GI50 (SF-295) was 19.1 µM (inactive), the GI50 (SK-MEL-28) was 19.5 µM (inactive) and the GI50 (SK-MEL-2) was 17.8 µM (inactive). For the same compound, the GI50 (SK-OV-3) was 66.7 µM (inactive), the GI50 (SNB-19) was > 100 µM (inactive) and the GI50 (SNB-75) was 15.1 µM (inactive). For the same compound, the GI50 (SNB-78) was 31.4 µM (inactive), the GI50 (SR) was 31 µM (inactive) and the GI50 (U-251) was 43.9 µM (inactive). For the same compound, the GI50 (UACC-257) was 18.5 µM (inactive), the GI50 (UACC-62) was 18.2 µM (inactive) and the GI50 (UO-31) was 17.9 µM (inactive).
